In patent US12083139B2, “Use of IGF-2 receptor agonist ligands for treatment of Angelman Syndrome and autism” (New York University, priority 2018, dated 2024):
Like-named read-outs stand apart in the source and are kept apart here.

How the values were obtained:
WT (Control) mice = test: Novel object recognition (nOR) in WT mice; format: in vivo
Procedure: (§1) FIG. 1. IGF-2 reverses most behavioral deficits observed in a mouse model of AS. Experimental timelines are shown above graphs. In all experiments mice received a s.c. injection of either vehicle or IGF-2 (↑) 20 min before either training or testing. All data are expressed as the mean±s.e.m. N=8-12 per group. Two-way analysis of variance (ANOVA) followed by Bonferroni post-hoc tests. *P<0.05, **P<0.01, ***P<0.001. (A) Percentage of time spent freezing before (Pre-US) or after (Post-US) the shock delivery during contextual fear conditioning training and at testing at 24 hours (h) after training (Test) of normal mice (wild type, WT), which served as controls and Ube3a−/+ mice (mouse model of AS, also referred to as mice) injected with vehicle or IGF-2. (B) Percent exploration preference for a novel object compared to a familiar object during novel object recognition of WT and Ube3a−/+ mice injected with vehicle or IGF-2, 20 min before training, tested at 4 h and 24 h after training. (C) Percent of correct alternations (% Correct) in a Y-maze of WT and Ube3a−/+ mice injected with vehicle or IGF-2 before testing (Test). (D) Latency to fall off from a rotating rod by WT and Ube3a−/+ mice injected with vehicle or IGF-2, 20 min before Test, and tested again 3 and 7 days later. (E) Time spent burying marbles by WT and Ube3a−/+ mice injected with vehicle or IGF-2, 20 min before Test. (F) Time spent in the center of an open field by WT and Ube3a−/+ mice following a vehicle or IGF-2 injection given 20 min before Test. The bars for each set from left to right are: WT Vehicle, WT IGF-2, Ube3a−/+ Vehicle, and Ube3a−/+ IGF-2.
(§2) FIG. 5. M6P reverses cognitive and motor deficits in AS mice. Experimental timelines are shown above graphs. In all experiments mice received a s.c. injection of either vehicle or 850 μg/Kg of M6P (IGF-2R.L1 or L1)(↑) 20 min before either training or testing. (A) Percent exploration preference for a novel object compared to a familiar object during the nOR paradigm of WT (Control) and Ube3a−/+(AS) mice injected with vehicle or IGF-2R.L1 20 min before training, and tested at 4 h and 24 h after training. N=4/group. Data are expressed as the mean±s.e.m. Two-way analysis of variance (ANOVA) followed by Bonferroni post-hoc tests. *P<0.05, **P<0.01, ***P<0.001. (B) Percent of correct alternations (% Correct) in a Y-maze of WT and AS mice injected with vehicle or M6P before testing (Test). Data are expressed as the mean (±s.e.m.). (C) Hindlimb clasping scores of WT and AS mice injected with vehicle or IGF-2R.L1, 20 min before Test. Hindlimb clasping scores are measured and expressed as following: If the hindlimbs are consistently splayed outward, away from the abdomen, it is assigned a score of 0. If one hindlimb is retracted toward the abdomen for more than 50% of the time suspended, it receives a score of 1. If both hindlimbs are partially retracted toward the abdomen for more than 50% of the time suspended, it receives a score of 2. If its hindlimbs are entirely retracted and touching the abdomen for more than 50% of the time suspended, it receives a score of 3. Data are expressed in scores. B and C: N=8-14 per group. Two-way analysis of variance (ANOVA) followed by Tukey post-hoc tests. *P<0.05, **P<0.01, ***P<0.001.
FIG. 6. PnM6P reverses memory and motor deficits in AS mice. Experimental timelines are shown above graphs. […] Data are expressed as the % mean±s.e.m. […]

Ube3a−/+ (AS) mice [1] = test: Novel object recognition (nOR) in AS mice; format: in vivo
Procedure: as §1, §2
FIG. 6. PnM6P reverses memory and motor deficits in AS mice. Experimental timelines are shown above graphs. In all experiments mice received a s.c. injection of either vehicle or 850 μg/Kg of phosphonate-M6P (PnM6P) called IGF-2R.L2 (or L2) (↑) 20 min before either training or testing. (A) Percent exploration preference for a novel object compared to a familiar object during the nOR paradigm of WT (Control) and Ube3a−/+ (AS) mice injected with vehicle or L2 before training, and tested at 4 h, 24 h and 5 days (5 d) after training. N=4/group. Data are expressed as the % mean±s.e.m. (B). […]

Ube3a−/+ (AS) mice [2] = test: RotaRod test (accelerating rotating rod) in AS mice; format: in vivo; conditions: s.c. injection 20 min before test (L2 850 μg/kg)
Procedure: as §1, with “(D) Latency to fall off from a rotating rod by WT and Ube3a−/+ mice injected with vehicle or IGF-2, 20 min before Test, and tested again 3 and 7 days later. (E) Time spent burying marbles by WT and Ube3a−/+ mice injected with vehicle or IGF-2, 20 min before Test. (F) Time spent in the center of an open field by WT and Ube3a−/+ mice following a vehicle or IGF-2 injection given 20 min before Test. The bars for each set from left to right are: WT Vehicle, WT IGF-2, Ube3a−/+ Vehicle, and Ube3a−/+ IGF-2.” left out
(§3) FIG. 6. […] Data are expressed as the % mean±s.e.m. […]
AS is also associated with robust motor impairments, which again are reproduced in the AS mice. Motor coordination and ability is reliably assessed in mice by placing them on an accelerating rotating rod (RotaRod test). […]

Ube3a−/+ (AS) mice [3] = test: Hindlimb clasping in AS mice; format: in vivo; conditions: 850 μg/kg s.c. 20 min before test
Procedure: as §2, with “If both hindlimbs are partially retracted toward the abdomen for more than 50% of the time suspended, it receives a score of 2. If its hindlimbs are entirely retracted and touching the abdomen for more than 50% of the time suspended, it receives a score of 3. Data are expressed in scores. B and C: N=8-14 per group. Two-way analysis of variance (ANOVA) followed by Tukey post-hoc tests. *P<0.05, **P<0.01, ***P<0.001.” left out
as §3
L2 injection reversed motor deficits as measured by hindlimb clasping.

IGF-2 receptor = IGF-2 receptor (Homo sapiens, UniProt P11717); conditions: cited from earlier work
IGF-2 receptor, sequence (P11717 41-2491): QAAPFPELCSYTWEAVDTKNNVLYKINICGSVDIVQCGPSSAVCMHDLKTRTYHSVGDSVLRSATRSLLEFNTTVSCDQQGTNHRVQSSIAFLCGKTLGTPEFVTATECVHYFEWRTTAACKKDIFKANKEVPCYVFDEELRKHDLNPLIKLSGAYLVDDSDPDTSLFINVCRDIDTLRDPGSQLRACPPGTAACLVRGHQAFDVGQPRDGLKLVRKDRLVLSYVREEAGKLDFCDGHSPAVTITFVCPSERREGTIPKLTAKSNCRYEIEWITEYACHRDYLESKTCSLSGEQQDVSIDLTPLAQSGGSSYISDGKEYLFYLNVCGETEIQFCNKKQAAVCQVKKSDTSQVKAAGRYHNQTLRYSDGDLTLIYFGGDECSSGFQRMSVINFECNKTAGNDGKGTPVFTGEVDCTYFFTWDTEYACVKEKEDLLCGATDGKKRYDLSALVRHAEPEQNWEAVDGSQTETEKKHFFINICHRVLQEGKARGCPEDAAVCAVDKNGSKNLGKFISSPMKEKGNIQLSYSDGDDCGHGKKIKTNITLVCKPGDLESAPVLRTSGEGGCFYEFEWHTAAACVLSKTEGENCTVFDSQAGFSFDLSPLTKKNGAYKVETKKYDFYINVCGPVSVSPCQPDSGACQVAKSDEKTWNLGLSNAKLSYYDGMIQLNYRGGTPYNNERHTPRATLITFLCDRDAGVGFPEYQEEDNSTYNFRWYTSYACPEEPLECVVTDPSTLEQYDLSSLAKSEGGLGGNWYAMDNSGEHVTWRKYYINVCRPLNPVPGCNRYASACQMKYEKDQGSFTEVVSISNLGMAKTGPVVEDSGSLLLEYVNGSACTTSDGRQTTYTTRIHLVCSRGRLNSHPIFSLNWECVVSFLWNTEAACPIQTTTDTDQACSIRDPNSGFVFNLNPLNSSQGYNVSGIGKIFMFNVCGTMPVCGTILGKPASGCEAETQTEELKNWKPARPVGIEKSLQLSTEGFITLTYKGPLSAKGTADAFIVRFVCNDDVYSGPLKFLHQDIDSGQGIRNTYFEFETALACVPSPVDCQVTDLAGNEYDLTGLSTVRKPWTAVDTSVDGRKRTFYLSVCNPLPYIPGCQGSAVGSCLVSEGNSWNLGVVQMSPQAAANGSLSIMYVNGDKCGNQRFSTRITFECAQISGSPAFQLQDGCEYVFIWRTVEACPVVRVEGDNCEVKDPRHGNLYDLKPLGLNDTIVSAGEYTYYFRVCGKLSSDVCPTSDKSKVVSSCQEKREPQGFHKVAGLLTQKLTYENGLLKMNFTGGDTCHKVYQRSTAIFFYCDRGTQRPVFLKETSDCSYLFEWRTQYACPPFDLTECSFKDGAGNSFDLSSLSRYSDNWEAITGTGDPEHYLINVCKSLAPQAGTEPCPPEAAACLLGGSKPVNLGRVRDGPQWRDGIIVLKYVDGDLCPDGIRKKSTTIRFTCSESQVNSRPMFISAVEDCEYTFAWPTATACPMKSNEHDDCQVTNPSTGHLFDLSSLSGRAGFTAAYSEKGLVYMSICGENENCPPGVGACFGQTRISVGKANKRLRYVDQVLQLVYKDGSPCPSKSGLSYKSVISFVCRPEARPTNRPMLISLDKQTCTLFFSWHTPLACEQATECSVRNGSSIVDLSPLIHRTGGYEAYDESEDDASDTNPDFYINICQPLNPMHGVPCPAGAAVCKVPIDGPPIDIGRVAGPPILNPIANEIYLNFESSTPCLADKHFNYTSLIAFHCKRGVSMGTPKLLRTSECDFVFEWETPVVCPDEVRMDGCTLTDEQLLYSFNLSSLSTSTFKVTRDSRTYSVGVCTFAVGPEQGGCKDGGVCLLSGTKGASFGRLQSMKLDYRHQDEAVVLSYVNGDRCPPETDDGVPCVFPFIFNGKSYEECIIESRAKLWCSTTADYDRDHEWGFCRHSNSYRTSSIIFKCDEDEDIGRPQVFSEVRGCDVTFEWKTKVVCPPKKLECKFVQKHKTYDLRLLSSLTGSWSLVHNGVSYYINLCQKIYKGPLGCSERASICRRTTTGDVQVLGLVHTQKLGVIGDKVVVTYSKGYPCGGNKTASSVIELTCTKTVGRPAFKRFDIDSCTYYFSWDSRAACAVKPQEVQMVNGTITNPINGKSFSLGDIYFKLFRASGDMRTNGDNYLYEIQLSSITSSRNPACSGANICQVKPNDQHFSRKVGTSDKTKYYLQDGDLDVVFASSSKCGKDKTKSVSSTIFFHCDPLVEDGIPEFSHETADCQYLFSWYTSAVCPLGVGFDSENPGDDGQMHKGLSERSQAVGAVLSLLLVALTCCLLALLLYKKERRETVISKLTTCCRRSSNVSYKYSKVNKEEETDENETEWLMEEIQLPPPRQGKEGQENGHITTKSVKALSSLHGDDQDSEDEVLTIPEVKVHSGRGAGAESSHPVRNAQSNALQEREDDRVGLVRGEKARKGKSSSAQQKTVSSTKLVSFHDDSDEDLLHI

Ube3a−/+ (AS) mice [4] = test: Spontaneous alternation in three-arm Y-maze in AS mice; format: in vivo; conditions: s.c. injection 20 min before test (M6P 850 μg/kg)
Procedure: as §1, with “(D) Latency to fall off from a rotating rod by WT and Ube3a−/+ mice injected with vehicle or IGF-2, 20 min before Test, and tested again 3 and 7 days later. (E) Time spent burying marbles by WT and Ube3a−/+ mice injected with vehicle or IGF-2, 20 min before Test. (F) Time spent in the center of an open field by WT and Ube3a−/+ mice following a vehicle or IGF-2 injection given 20 min before Test. The bars for each set from left to right are: WT Vehicle, WT IGF-2, Ube3a−/+ Vehicle, and Ube3a−/+ IGF-2.” left out
FIG. 5. […] Data are expressed as the mean±s.e.m. […] Data are expressed as the mean (±s.e.m.). […] Hindlimb clasping scores are measured and expressed as following: If the hindlimbs are consistently splayed outward, away from the abdomen, it is assigned a score of 0. […]

Ube3a−/+ (AS) mice [5] = test: Open field (center entry, anxiety-like behavior) in AS mice; format: in vivo; conditions: s.c. injection 20 min before test
Procedure: as §1, with “(D) Latency to fall off from a rotating rod by WT and Ube3a−/+ mice injected with vehicle or IGF-2, 20 min before Test, and tested again 3 and 7 days later. (E) Time spent burying marbles by WT and Ube3a−/+ mice injected with vehicle or IGF-2, 20 min before Test. (F) Time spent in the center of an open field by WT and Ube3a−/+ mice following a vehicle or IGF-2 injection given 20 min before Test. The bars for each set from left to right are: WT Vehicle, WT IGF-2, Ube3a−/+ Vehicle, and Ube3a−/+ IGF-2.” left out
To measure the effect of IGF-2 on anxiety-like behavior we employed open field and measured center entry (which measures anxiety behavior): No effect of IGF-2 treatment was found on AS mice, which remained altered compared to the behavior of normal mice (FIG. 1F).

[6] = tested on: Ube3a−/+ mice (mouse model of AS); test: Contextual fear conditioning (CFC) in AS mice; format: in vivo; conditions: s.c. injection 20 min before training, test 24 h after training
Procedure: FIG. 1. IGF-2 reverses most behavioral deficits observed in a mouse model of AS. Experimental timelines are shown above graphs. In all experiments mice received a s.c. injection of either vehicle or IGF-2 (↑) 20 min before either training or testing. All data are expressed as the mean±s.e.m. N=8-12 per group. Two-way analysis of variance (ANOVA) followed by Bonferroni post-hoc tests. *P<0.05, **P<0.01, ***P<0.001. (A) Percentage of time spent freezing before (Pre-US) or after (Post-US) the shock delivery during contextual fear conditioning training and at testing at 24 hours (h) after training (Test) of normal mice (wild type, WT), which served as controls and Ube3a−/+ mice (mouse model of AS, also referred to as mice) injected with vehicle or IGF-2. (B) Percent exploration preference for a novel object compared to a familiar object during novel object recognition of WT and Ube3a−/+ mice injected with vehicle or IGF-2, 20 min before training, tested at 4 h and 24 h after training. […]
As measures of learning/cognitive responses, which are known to be altered in Angelman Syndrome (AS), we tested different types of aversive and non-aversive memories. […] We tested memory retention one day later (a time that is used to measure long-term memory) by placing mice back in the same chamber and measured their fear-related (freezing) behavior.

Ube3a−/+ (AS) mice [7] = test: Marble-burying test in AS mice; format: in vivo; conditions: s.c. injection 20 min before test
Procedure: as §1, with “(F) Time spent in the center of an open field by WT and Ube3a−/+ mice following a vehicle or IGF-2 injection given 20 min before Test. The bars for each set from left to right are: WT Vehicle, WT IGF-2, Ube3a−/+ Vehicle, and Ube3a−/+ IGF-2.” left out

[8] = L2 850 μg/kg s.c. before training, 5 d test
[9] = s.c. injection 20 min before training (M6P and L2 850 μg/kg), test 24 h after training
[10] = s.c. injection 20 min before training (M6P and L2 850 μg/kg), test 4 h after training

Row | Compound | Exploration preference for novel object (nOR memory) (WT (Control) mice; [8]) | Exploration preference for novel object (nOR memory) (WT (Control) mice; s.c. injection 20 min before training (L2 850 μg/kg), test 4 h after training) | Exploration preference for novel object (nOR memory) (WT (Control) mice; [9]) | Exploration preference for novel object (nOR memory) (Ube3a−/+ (AS) mice [1]; [8]) | Exploration preference for novel object (nOR memory) (Ube3a−/+ (AS) mice [1]; [10]) | Exploration preference for novel object (nOR memory) (Ube3a−/+ (AS) mice [1]; [9]) | Latency to fall off rotating rod (motor ability) (Ube3a−/+ (AS) mice [2]) | Hindlimb clasping score (motor deficit) (Ube3a−/+ (AS) mice [3]) | Kd (IGF-2 receptor; one of the two known binding sites, Olson et al., J. Biol. Chem. 2004, read-out: Affinity for IGF-2 receptor) [nM] | Kd (IGF-2 receptor; other of the two known binding sites, Olson et al., J. Biol. Chem. 2004, read-out: Affinity for IGF-2 receptor) [nM] | Correct alternations in Y-maze (exploratory strategy/working memory) (Ube3a−/+ (AS) mice [4]) | Open field center entry (anxiety-like behavior) (Ube3a−/+ (AS) mice [5]) | Freezing (long-term memory retention) in contextual fear conditioning [6] | Kd (IGF-2 receptor; Williams et al., Science 2012, read-out: Kd for IGF-2 receptor) [nM] | Marble burying (time spent burying) (Ube3a−/+ (AS) mice [7])
1 | COC1OC(CCP(=O)(OCOC(=O)OC(C)C)OCOC(=O)OC(C)C)C(O)C(O)C1O [L2, Methyl 6-Deoxy-6-diisopropyloxycarbonyloxy-methyl-phosphinylmethyl-α-D-mannopyranoside] | none of the groups (vehicle or L2 injected) showed significant memory | significantly enhanced nOR memory retention in WT mice | showed significant memory compared to vehicle-injected groups | none of the groups (vehicle or L2 injected) showed significant memory | significantly reversed the deficit of AS mice in nOR | showed significant memory compared to vehicle-injected groups | significantly improved their motor ability on the RotaRod | returned their hindlimb clasping behavior to control levels |  |  |  |  |  |  | 
2 | O=P(O)(O)OCC1OC(O)C(O)C(O)C1O (stereo not drawn) [M6P, mannose-6-phosphate] |  |  | significant memory retention |  | reversed memory deficits in AS mice | significant memory retention |  | significantly reduced hind limb clasping | ~1 | ~1000 | completely reversed the deficit |  |  |  | 
3 | IGF-2: insulin-like growth factor 2 (IGF-2 or IGF-II), IGF-2 receptor agonist ligand |  |  | significant preference for a novel object |  | completely reversed the memory deficits of AS mice | significant preference for a novel object | significant improvement in motor ability |  |  |  | reverses the repetitive, inflexible behavior | No effect | completely reversed the memory impairment of AS mice | 40 to 60 | rescued the deficits of the AS mice
